From ChEMBL document CHEMBL5291721, “A preclinical secondary pharmacology resource illuminates target-adverse drug reaction associations of marketed drugs” (Nat Commun, 2023)

Legend:
[1] = molecular target: T1, Muscarinic acetylcholine receptor M1 (Homo sapiens, UniProt P11229); format: functional
T1 sequence (P11229 whole entry): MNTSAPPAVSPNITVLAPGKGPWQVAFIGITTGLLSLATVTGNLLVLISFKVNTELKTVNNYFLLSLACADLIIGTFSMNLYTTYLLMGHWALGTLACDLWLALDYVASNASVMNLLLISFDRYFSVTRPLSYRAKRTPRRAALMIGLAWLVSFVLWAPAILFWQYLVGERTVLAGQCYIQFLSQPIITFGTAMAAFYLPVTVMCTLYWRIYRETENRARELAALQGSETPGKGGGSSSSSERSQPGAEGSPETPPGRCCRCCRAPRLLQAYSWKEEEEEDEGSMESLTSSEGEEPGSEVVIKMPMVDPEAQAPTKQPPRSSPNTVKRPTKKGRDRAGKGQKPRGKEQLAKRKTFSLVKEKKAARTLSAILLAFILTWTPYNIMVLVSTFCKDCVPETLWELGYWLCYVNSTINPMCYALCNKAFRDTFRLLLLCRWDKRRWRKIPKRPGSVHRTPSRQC

[2] = molecular target: Glutamate receptor ionotropic, NMDA 1 (Rattus norvegicus, UniProt P35439)
[3] = molecular target: T2, Alpha-1A adrenergic receptor (Homo sapiens, UniProt P35348); format: functional, cell-based
T2 sequence (P35348 whole entry): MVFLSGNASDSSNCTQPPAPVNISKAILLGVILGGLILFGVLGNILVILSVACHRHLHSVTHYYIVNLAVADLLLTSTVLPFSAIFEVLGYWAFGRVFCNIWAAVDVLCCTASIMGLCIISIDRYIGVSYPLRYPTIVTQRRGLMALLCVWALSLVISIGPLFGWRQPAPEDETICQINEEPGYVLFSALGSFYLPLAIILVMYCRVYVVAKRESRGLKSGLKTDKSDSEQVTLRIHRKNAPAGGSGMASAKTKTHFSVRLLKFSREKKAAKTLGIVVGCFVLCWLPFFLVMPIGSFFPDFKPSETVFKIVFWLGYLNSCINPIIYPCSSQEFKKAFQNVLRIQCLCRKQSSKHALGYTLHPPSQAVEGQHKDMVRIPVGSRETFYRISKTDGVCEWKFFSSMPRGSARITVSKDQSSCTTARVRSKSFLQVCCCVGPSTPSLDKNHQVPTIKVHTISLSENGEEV

D(1A) dopamine receptor = D(1A) dopamine receptor (Homo sapiens, UniProt P21728); format: functional, cell-based
Chain of D(1A) dopamine receptor (P21728 whole entry): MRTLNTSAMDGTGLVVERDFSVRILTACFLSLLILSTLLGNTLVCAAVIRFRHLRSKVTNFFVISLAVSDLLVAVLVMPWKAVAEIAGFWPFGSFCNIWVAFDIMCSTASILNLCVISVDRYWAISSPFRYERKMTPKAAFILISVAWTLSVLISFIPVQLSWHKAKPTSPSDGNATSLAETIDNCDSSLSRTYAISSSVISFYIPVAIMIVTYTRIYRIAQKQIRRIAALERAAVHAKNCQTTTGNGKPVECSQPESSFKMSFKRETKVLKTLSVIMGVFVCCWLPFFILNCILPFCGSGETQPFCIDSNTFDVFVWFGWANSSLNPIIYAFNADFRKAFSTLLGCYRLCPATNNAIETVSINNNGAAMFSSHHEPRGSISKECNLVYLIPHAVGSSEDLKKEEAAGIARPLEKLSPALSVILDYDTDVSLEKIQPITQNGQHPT

[4] = molecular target: 5-hydroxytryptamine receptor 2B (Homo sapiens, UniProt P41595); format: functional, cell-based
Chain of 5-hydroxytryptamine receptor 2B (P41595 whole entry): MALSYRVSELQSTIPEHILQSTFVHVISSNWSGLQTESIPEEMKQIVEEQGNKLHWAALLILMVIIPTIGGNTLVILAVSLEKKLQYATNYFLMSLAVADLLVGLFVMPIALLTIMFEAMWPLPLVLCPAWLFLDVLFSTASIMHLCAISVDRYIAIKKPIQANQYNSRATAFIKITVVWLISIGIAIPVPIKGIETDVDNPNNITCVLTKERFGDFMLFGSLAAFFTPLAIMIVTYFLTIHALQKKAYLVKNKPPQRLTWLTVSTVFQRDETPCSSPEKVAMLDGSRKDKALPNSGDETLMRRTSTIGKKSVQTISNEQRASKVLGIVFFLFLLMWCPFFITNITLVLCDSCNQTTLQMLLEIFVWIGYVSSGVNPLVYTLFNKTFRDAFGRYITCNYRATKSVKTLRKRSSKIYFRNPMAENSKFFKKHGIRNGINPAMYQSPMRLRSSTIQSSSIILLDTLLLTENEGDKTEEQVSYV

Cannabinoid receptor 1 = Cannabinoid receptor 1 (Homo sapiens, UniProt P21554); format: functional, cell-based
Chain of Cannabinoid receptor 1 (P21554 whole entry): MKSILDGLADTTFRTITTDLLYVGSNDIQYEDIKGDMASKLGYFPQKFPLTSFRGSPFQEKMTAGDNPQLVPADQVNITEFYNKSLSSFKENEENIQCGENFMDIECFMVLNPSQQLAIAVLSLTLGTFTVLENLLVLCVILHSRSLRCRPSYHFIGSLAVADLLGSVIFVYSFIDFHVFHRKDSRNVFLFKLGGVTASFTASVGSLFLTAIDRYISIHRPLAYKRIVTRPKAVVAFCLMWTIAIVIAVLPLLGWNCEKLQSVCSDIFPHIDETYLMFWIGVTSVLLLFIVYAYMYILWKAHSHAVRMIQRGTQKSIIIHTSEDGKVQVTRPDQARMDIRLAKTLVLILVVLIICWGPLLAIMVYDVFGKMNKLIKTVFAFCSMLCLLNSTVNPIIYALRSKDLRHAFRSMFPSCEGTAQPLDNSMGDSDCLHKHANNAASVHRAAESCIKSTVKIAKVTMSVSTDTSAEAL

[5] = molecular target: T3, Gamma-aminobutyric acid receptor subunit alpha-1 (Rattus norvegicus, UniProt P62813)
T3 sequence (P62813 whole entry): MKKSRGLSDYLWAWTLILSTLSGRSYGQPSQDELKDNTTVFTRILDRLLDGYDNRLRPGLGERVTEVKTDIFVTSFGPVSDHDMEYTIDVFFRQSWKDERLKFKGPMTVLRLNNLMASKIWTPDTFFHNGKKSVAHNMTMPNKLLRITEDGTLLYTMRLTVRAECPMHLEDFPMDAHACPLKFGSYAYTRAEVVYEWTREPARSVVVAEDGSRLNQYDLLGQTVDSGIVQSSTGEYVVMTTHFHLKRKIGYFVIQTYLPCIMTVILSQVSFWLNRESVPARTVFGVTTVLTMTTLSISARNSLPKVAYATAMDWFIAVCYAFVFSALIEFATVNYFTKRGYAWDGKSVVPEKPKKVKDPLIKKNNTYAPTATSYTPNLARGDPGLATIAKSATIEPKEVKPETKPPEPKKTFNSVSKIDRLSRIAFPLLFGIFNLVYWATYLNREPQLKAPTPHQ

[6] = molecular target: Sodium-dependent serotonin transporter (Homo sapiens, UniProt P31645)
Chain of Sodium-dependent serotonin transporter (P31645 whole entry): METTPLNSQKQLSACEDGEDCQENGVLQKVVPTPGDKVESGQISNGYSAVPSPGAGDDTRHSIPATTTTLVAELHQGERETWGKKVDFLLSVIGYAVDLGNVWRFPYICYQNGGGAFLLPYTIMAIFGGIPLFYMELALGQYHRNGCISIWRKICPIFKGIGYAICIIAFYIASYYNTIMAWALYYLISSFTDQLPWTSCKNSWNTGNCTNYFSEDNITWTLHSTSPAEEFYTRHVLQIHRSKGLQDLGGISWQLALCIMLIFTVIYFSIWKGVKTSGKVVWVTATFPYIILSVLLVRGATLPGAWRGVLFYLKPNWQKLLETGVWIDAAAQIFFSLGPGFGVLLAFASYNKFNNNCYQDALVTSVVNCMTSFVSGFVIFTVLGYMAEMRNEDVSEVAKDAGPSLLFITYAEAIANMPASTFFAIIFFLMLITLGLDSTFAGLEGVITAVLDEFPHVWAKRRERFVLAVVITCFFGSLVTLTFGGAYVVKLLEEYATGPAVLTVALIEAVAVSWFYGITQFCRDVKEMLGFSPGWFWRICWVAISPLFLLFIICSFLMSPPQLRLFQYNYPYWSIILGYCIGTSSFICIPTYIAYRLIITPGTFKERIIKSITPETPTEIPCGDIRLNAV

[7] = molecular target: Delta-type opioid receptor (Homo sapiens, UniProt P41143)
Chain of Delta-type opioid receptor (P41143 whole entry): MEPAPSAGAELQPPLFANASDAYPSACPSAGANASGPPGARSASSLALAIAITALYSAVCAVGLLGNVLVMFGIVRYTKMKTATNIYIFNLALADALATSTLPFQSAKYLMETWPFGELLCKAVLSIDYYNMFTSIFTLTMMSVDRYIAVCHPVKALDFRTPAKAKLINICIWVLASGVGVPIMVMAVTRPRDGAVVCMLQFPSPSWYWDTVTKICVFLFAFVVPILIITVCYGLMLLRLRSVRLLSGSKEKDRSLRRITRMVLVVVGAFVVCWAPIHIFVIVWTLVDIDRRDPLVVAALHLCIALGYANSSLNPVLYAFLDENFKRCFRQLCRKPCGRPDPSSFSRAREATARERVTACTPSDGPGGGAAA

[8] = molecular target: T3, Gamma-aminobutyric acid receptor subunit alpha-1; remark: listed apart in the source
[9] = molecular target: T2, Alpha-1A adrenergic receptor; format: functional, cell-based; remark: listed apart in the source
[10] = molecular target: T1, Muscarinic acetylcholine receptor M1; format: functional, cell-based
[11] = molecular target: T4, Prostaglandin G/H synthase 1 (Rattus norvegicus, UniProt Q63921); format: functional
T4 sequence (Q63921 whole entry): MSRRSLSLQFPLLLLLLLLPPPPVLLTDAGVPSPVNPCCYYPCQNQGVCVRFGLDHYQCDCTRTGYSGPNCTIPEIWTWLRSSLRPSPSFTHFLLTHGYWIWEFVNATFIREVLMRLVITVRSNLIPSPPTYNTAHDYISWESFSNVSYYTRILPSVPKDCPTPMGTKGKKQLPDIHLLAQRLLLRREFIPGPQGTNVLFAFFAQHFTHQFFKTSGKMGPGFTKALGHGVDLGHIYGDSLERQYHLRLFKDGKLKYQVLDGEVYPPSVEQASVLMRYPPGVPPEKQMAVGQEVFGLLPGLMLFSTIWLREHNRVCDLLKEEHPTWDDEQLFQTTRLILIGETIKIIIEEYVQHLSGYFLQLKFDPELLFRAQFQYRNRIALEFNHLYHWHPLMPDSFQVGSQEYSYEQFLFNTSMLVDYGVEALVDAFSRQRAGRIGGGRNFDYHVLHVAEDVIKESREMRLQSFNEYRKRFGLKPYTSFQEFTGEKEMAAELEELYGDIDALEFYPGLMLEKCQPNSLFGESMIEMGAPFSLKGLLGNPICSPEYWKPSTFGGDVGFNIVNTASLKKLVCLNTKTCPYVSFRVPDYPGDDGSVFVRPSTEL

[12] = molecular target: T5, Muscarinic acetylcholine receptor M2 (Homo sapiens, UniProt P08172); format: functional, cell-based
T5 sequence (P08172 whole entry): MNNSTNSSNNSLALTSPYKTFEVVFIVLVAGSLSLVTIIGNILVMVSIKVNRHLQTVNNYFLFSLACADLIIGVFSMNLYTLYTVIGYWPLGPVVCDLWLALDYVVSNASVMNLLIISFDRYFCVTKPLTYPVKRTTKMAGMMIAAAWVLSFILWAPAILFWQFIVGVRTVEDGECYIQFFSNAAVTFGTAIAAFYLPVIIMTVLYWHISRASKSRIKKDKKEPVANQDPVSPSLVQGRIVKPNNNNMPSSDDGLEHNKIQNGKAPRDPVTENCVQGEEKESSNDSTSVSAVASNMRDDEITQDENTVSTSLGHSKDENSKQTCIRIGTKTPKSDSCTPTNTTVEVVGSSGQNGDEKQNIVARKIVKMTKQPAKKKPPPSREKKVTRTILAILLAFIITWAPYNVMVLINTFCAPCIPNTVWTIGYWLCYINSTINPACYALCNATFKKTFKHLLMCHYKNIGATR
Note: assay procedure not described here.

SMILES | AC50 [1] | AC50 [2] | AC50 [3] | AC50 (D(1A) dopamine receptor) | AC50 [4] | AC50 (Cannabinoid receptor 1) | AC50 [5] | AC50 [6] | AC50 [7] | AC50 [8] | AC50 [9] | AC50 [10] | AC50 [11] | AC50 [12]
CO/N=C(\C(=O)N[C@@H]1C(=O)N2C(C(=O)OCOC(=O)C(C)(C)C)=C(C)CS[C@H]12)c1csc(N)n1 | > 30 µM | > 30 µM | > 30 µM | > 30 µM | > 30 µM | > 30 µM | > 30 µM | > 30 µM | > 30 µM | > 30 µM | > 30 µM | – | – | –
CCCC1C(=O)N2C(N(C)C)=Nc3ccc(C)cc3N2C1=O (centres undefined) [APAZONE] | – | – | – | – | – | – | – | > 30 µM | – | – | – | > 30 µM | – | –
O=C1CN=C(c2ccccc2)c2c(sc3c2CCCC3)N1 [BENTAZEPAM] | – | – | – | – | – | – | – | > 30 µM | – | – | – | > 30 µM | – | –
O=C(Cn1ccnc1[N+](=O)[O-])NCc1ccccc1 [BENZNIDAZOLE] | > 30 µM | > 30 µM | > 30 µM | > 30 µM | > 30 µM | > 30 µM | > 30 µM | > 30 µM | > 30 µM | > 30 µM | > 30 µM | – | > 30 µM | > 30 µM
CCCC[N+]1(C)[C@@H]2C[C@@H](OC(=O)[C@H](CO)c3ccccc3)C[C@H]1[C@@H]1O[C@@H]12 (some centres undefined) [BUTYLSCOPOLAMINE] | – | – | – | – | – | – | – | > 30 µM | – | > 30 µM | – | – | – | –
COCC1=C(C(=O)OC(C)OC(=O)OC(C)C)N2C(=O)[C@@H](NC(=O)/C(=N\OC)c3csc(N)n3)[C@H]2SC1 (some centres undefined) [CEFPODOXIME PROXETIL] | > 30 µM | > 30 µM | > 30 µM | > 30 µM | > 30 µM | > 30 µM | > 30 µM | > 30 µM | > 30 µM | > 30 µM | > 30 µM | – | – | > 30 µM
O=C(c1ccc(F)c(F)c1Nc1ccc(I)cc1F)N1CC(O)([C@@H]2CCCCN2)C1 [COBIMETINIB] | – | – | – | – | – | – | – | 7.82 µM | – | > 30 µM | – | – | – | –
NS(=O)(=O)c1cc2c(cc1Cl)NC(CC1CCCC1)NS2(=O)=O (centres undefined) [CYCLOPENTHIAZIDE] | > 30 µM | > 30 µM | > 30 µM | > 30 µM | > 30 µM | > 30 µM | > 30 µM | > 30 µM | > 30 µM | > 30 µM | > 30 µM | – | – | –
COc1ccc(-c2cc(=O)c3c(O)cc(O[C@@H]4O[C@H](CO[C@@H]5O[C@@H](C)[C@H](O)[C@@H](O)[C@H]5O)[C@@H](O)[C@H](O)[C@H]4O)cc3o2)cc1O [DIOSMIN] | – | – | – | – | – | – | – | > 30 µM | – | – | – | > 30 µM | – | –
CCOc1ccc(/C=C2\NCCc3cc(OCC)c(OCC)cc32)cc1OCC [DROTAVERINE] | – | – | – | – | – | – | – | 3 µM | – | – | – | 12.3 µM | – | –
N/N=c1/cc2c(n[nH]1)CCN(C(=O)c1ccccc1)C2 [ENDRALAZINE] | > 30 µM | > 30 µM | > 30 µM | > 30 µM | > 30 µM | > 30 µM | > 30 µM | > 30 µM | > 30 µM | > 30 µM | > 30 µM | – | – | –
CC(C)=CCC1C(=O)N(c2ccccc2)N(c2ccccc2)C1=O [FEPRAZONE] | – | – | – | – | – | – | – | > 30 µM | – | > 30 µM | – | – | – | –
C[C@@H]1C[C@H]2[C@@H]3C[C@H](F)C4=CC(=O)C=C[C@]4(C)[C@@]3(F)[C@@H](O)C[C@]2(C)[C@@]1(O)C(=O)COC(=O)C(C)(C)C [FLUMETHASONE PIVALATE] | – | – | – | – | – | – | – | > 30 µM | – | – | – | > 30 µM | – | –
